Data as given in PubChem BioAssay (NCI).
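Tested at 5 concentrations; 48 h exposure; 96-well plates; endpoints linearly interpolated, else capped at highest concentration. The concentration for 50% growth inhibition is given as GI50. At the TGI there is no net growth.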

Experiments:
Assay in all cases: NCI-60 cell line screen, 48 h
CCRF-CEM leukemia = test system: CCRF-CEM leukemia
HCT-15 colon = test system: HCT-15 colon
UACC-257 melanoma = test system: UACC-257 melanoma
NCI-H460 lung = test system: NCI-H460 lung
MCF7 breast = test system: MCF7 breast
NCI/ADR-RES ovarian = test system: NCI/ADR-RES ovarian
HL-60(TB) leukemia = test system: HL-60(TB) leukemia
MALME-3M melanoma = test system: MALME-3M melanoma
SNB-19 CNS = test system: SNB-19 CNS
RPMI-8226 leukemia = test system: RPMI-8226 leukemia
SF-539 CNS = test system: SF-539 CNS
SF-295 CNS = test system: SF-295 CNS
SK-MEL-28 melanoma = test system: SK-MEL-28 melanoma
HCC-2998 colon = test system: HCC-2998 colon
T-47D breast = test system: T-47D breast
HOP-92 NSCLC = test system: HOP-92 NSCLC
SK-MEL-5 melanoma = test system: SK-MEL-5 melanoma
NCI-H522 lung = test system: NCI-H522 lung
COLO 205 colon = test system: COLO 205 colon
MDA-MB-231 breast = test system: MDA-MB-231 breast
SNB-75 CNS = test system: SNB-75 CNS
TK-10 renal = test system: TK-10 renal
OVCAR-3 ovarian = test system: OVCAR-3 ovarian
NCI-H23 lung = test system: NCI-H23 lung
NCI-H226 lung = test system: NCI-H226 lung
786-0 renal = test system: 786-0 renal
SN12C renal = test system: SN12C renal
M14 melanoma = test system: M14 melanoma
OVCAR-8 ovarian = test system: OVCAR-8 ovarian
HOP-62 NSCLC = test system: HOP-62 NSCLC
RXF 393 renal = test system: RXF 393 renal
UACC-62 melanoma = test system: UACC-62 melanoma
PC-3 prostate = test system: PC-3 prostate
DU-145 prostate = test system: DU-145 prostate
OVCAR-4 ovarian = test system: OVCAR-4 ovarian
K-562 leukemia = test system: K-562 leukemia
CAKI-1 renal = test system: CAKI-1 renal
HCT-116 colon = test system: HCT-116 colon
U251 CNS = test system: U251 CNS
MDA-MB-435 = test system: MDA-MB-435
ACHN renal = test system: ACHN renal
HT29 colon = test system: HT29 colon
EKVX NSCLC = test system: EKVX NSCLC
A549 NSCLC = test system: A549 NSCLC
BT-549 breast = test system: BT-549 breast
A498 renal = test system: A498 renal
SW-620 colon = test system: SW-620 colon
SK-MEL-2 melanoma = test system: SK-MEL-2 melanoma
UO-31 renal = test system: UO-31 renal
SK-OV-3 ovarian = test system: SK-OV-3 ovarian
LOX IMVI melanoma = test system: LOX IMVI melanoma
KM12 colon = test system: KM12 colon
IGROV1 ovarian = test system: IGROV1 ovarian
SF-268 CNS = test system: SF-268 CNS
OVCAR-5 ovarian = test system: OVCAR-5 ovarian

## O=[N+]([O-])c1ccc(-c2cc3c(Nc4ccc(Cl)c(C(F)(F)F)c4)ncnc3s2)cc1
CCRF-CEM leukemia
  GI50: 1290 nM
  TGI: > 100000 nM
HCT-15 colon
  GI50: 1010 nM
  TGI: > 100000 nM
UACC-257 melanoma
  GI50: 2950 nM
  TGI: > 26800 nM
NCI-H460 lung
  GI50: 774 nM
  TGI: > 100000 nM
MCF7 breast
  GI50: 982 nM
  TGI: > 100000 nM
NCI/ADR-RES ovarian
  GI50: 1360 nM
  TGI: > 100000 nM
HL-60(TB) leukemia
  GI50: 906 nM
  TGI: 3620 nM
MALME-3M melanoma
  GI50: 1510 nM
  TGI: 4190 nM
SNB-19 CNS
  GI50: 1290 nM
  TGI: > 86400 nM
RPMI-8226 leukemia
  GI50: 555 nM
  TGI: 2810 nM
SF-539 CNS
  GI50: 1880 nM
  TGI: 9400 nM
SF-295 CNS
  GI50: 1210 nM
  TGI: 6750 nM
SK-MEL-28 melanoma
  GI50: 2240 nM
  TGI: > 100000 nM
HCC-2998 colon
  GI50: 2020 nM
  TGI: > 100000 nM
T-47D breast
  GI50: 407 nM
  TGI: 6100 nM
HOP-92 NSCLC
  GI50: 963 nM
  TGI: 4950 nM
SK-MEL-5 melanoma
  GI50: 1130 nM
  TGI: 2580 nM
NCI-H522 lung
  GI50: 566 nM
  TGI: 5130 nM
COLO 205 colon
  GI50: 1790 nM
  TGI: 3350 nM
MDA-MB-231 breast
  GI50: 382 nM
  TGI: 1630 nM
SNB-75 CNS
  GI50: 1870 nM
  TGI: 9020 nM
TK-10 renal
  GI50: 3560 nM
  TGI: > 100000 nM
OVCAR-3 ovarian
  GI50: 605 nM
  TGI: > 100000 nM
NCI-H23 lung
  GI50: 1060 nM
  TGI: > 100000 nM
NCI-H226 lung
  GI50: 2890 nM
  TGI: > 100000 nM
786-0 renal
  GI50: 1100 nM
  TGI: > 20600 nM
SN12C renal
  GI50: 1160 nM
  TGI: > 100000 nM
M14 melanoma
  GI50: 2860 nM
  TGI: > 100000 nM
OVCAR-8 ovarian
  GI50: 2670 nM
  TGI: > 100000 nM
HOP-62 NSCLC
  GI50: 3130 nM
  TGI: > 100000 nM
RXF 393 renal
  GI50: 1790 nM
  TGI: 6190 nM
UACC-62 melanoma
  GI50: 1630 nM
  TGI: > 100000 nM
PC-3 prostate
  GI50: 802 nM
  TGI: > 100000 nM
DU-145 prostate
  GI50: 1630 nM
  TGI: > 100000 nM
OVCAR-4 ovarian
  GI50: 1200 nM
  TGI: > 100000 nM
K-562 leukemia
  GI50: 872 nM
  TGI: > 100000 nM
CAKI-1 renal
  GI50: 2220 nM
  TGI: 8320 nM
HCT-116 colon
  GI50: 1510 nM
  TGI: > 100000 nM
U251 CNS
  GI50: 1380 nM
  TGI: > 87800 nM
MDA-MB-435
  GI50: 2240 nM
  TGI: > 100000 nM
ACHN renal
  GI50: 2420 nM
  TGI: 7600 nM
HT29 colon
  GI50: 1490 nM
  TGI: > 100000 nM
EKVX NSCLC
  GI50: 2610 nM
  TGI: > 100000 nM
A549 NSCLC
  GI50: 1380 nM
  TGI: > 100000 nM
BT-549 breast
  GI50: 2910 nM
  TGI: > 100000 nM
A498 renal
  GI50: 706 nM
  TGI: 3420 nM
SW-620 colon
  GI50: 2860 nM
  TGI: > 100000 nM
SK-MEL-2 melanoma
  GI50: 2400 nM
  TGI: 6420 nM
UO-31 renal
  GI50: 1130 nM
  TGI: > 26700 nM
SK-OV-3 ovarian
  GI50: 2770 nM
  TGI: > 26300 nM
LOX IMVI melanoma
  GI50: 1620 nM
  TGI: > 100000 nM
KM12 colon
  GI50: 1420 nM
  TGI: > 100000 nM
IGROV1 ovarian
  GI50: 1620 nM
  TGI: > 100000 nM
SF-268 CNS
  GI50: 1340 nM
  TGI: > 100000 nM
OVCAR-5 ovarian
  GI50: 1350 nM
  TGI: > 100000 nM
